Experimental data: patent US5324648A, “Substituted isocoumarins as serine protease inhibitors and anti-inflammatory agents” (Georgia Tech Research Corporation, priority 1992, dated 1994)

How the values were obtained:
human thrombin = biological target: T1, human thrombin (Homo sapiens, UniProt P00734); experiment: Inactivation rate of human thrombin; format: biochemical; conditions: Table VIII; pH 7.5, 25° C; [I] 1.2-54 μM; read-out: kobs/[I]
T1 construct: human thrombin
Procedure: (§1) Inactivation rates of serine proteases by substituted isocoumarins were measured by the incubation method. An aliquot of inhibitor (25 or 50 μl) in Me2 SO was added to a buffered enzyme solution (0.01-2.3 μM) to initiate the inactivation. Aliquots (50 μl) were withdrawn at various intervals and the residual enzymatic activity was measured. Me2 SO concentration in the reaction mixture was 8-12% (v/v). 0.1 Hepes, 0.01M CaCl2, pH 7.5 buffer was utilized for trypsin and coagulation enzymes. 0.1M Hepes, 0.5M NaCl, pH 7.5 was utilized for other serine proteases. The inhibitor concentrations are shown in all the tables. Peptide thioesters or peptide nitroanilides with appropriate sequence were used as substrates for various serine proteases. All peptide thioester hydrolysis rates were measured with assay mixtures containing 4,4'-dithiodipyridine (ε324 =19800M^-1 cm^-1; Grasetti & Murray, Arch. Biochem. Biophys. 119, pp 41-49 (1967)). Peptide 4-nitroanilide nitroanilide hydrolysis was measured at 410 nm (ε410 =8800M^-1 cm^-1; Erlanger et al., Arch. Biochem. Biophys. 95, pp 271-278 (1961)). First order inactivation rate constant (kobs) were obtained from plots of ln (vt /vo) vs time, and the correlation coefficients were greater than 0.98.
(§2) ^a Inhibition rates were measured in 0.1M Hepes, 0.01M CaCl2, pH
(§3) 7.5 buffer, 8% Me2 SO and at 25° C.

human factor Xa = biological target: T2, human factor Xa (Homo sapiens, UniProt P00742); experiment: Inactivation rate of human factor Xa; format: biochemical; conditions: Table VIII; pH 7.5, 25° C; [I] 3.6-44 μM; read-out: kobs/[I]
T2 construct: human factor Xa
Procedure: as §1
(§4) ^a Conditions were as 0.1M Hepes, 0.01M CaCl2, pH 7.5 and 8-12%
(§5) Me2 SO and 25° C. Rate constants were measured by incubation
(§6) method unless otherwise noted. An aliquot of inhibitor was added to an
(§7) enzyme solution and aliquots removed with time and assayed for remaining
(§8) enzymatic activity. Firstorder rate constants, kobs were obtained
(§9) from the plots of ln(vt /vo) versus time.
as §2, §3

bovine thrombin = biological target: T3, bovine thrombin (Bos taurus, UniProt P00735); experiment: Inactivation rate of bovine thrombin; format: biochemical; conditions: Table VIII; pH 7.5, 25° C; [I] 1.2-54 μM; read-out: kobs/[I]
T3 construct: bovine thrombin
Procedure: as §1, §4, §5, §6, §7, §8, §9, §2, §3

[1] = biological target: recombinant human tissue plasminogen activator (Homo sapiens, UniProt P00750); experiment: Inactivation rate of recombinant human tissue plasminogen activator; format: biochemical
Procedure: as §1
^a Inactivation constants were measured at 0.1M Hepes, 0.5M NaCl (or
as §2
(§10) 7.5 buffer for human plasmin; 25 mM Phosphate, 0.5M NaCl, 1 mM EDTA, pH
(§11) 7.5 buffer for rat skin tryptase and 0.1M Hepes, 0.5M NaCl, pH 7.5 for
(§12) human lung tryptase, human skin tryptase and rt-PA. All enzymes were
(§13) assayed with ZArg-SBzl (0.07 mM) in the presence of 4,4dithiodipyridine
(§14) (0.33 mM). Reaction mixtures contained 8% Me2 SO and assays were […]

rat skin tryptase = biological target: T4, rat skin tryptase (Rattus norvegicus, UniProt P27435); experiment: Inactivation rate of rat skin tryptase; format: biochemical; conditions: pH 7.5, Table IX; pH 7.5, 25° C; [I] 0.42-0.51 μM; read-out: kobs/[I]
T4 construct: from tissue; host or cells: rat skin
Procedure: as §1
^b Inactivation rates were measured at 25 mM phosphate, 0.5M NaCl, 1
mM EDTA, pH 7.5 buffer, 9% Me2 SO and 25° C.
as §2, §10, §11, §12, §13, §14

cathepsin G = biological target: T5, cathepsin G (Homo sapiens, UniProt P08311); experiment: Inactivation of cathepsin G; format: biochemical; conditions: Table X; pH 7.5, 25° C; [I] 33-46 μM; read-out: kobs/[I]
T5 construct: from tissue; host or cells: human leukocytes
T5 sequence (P08311 21-255): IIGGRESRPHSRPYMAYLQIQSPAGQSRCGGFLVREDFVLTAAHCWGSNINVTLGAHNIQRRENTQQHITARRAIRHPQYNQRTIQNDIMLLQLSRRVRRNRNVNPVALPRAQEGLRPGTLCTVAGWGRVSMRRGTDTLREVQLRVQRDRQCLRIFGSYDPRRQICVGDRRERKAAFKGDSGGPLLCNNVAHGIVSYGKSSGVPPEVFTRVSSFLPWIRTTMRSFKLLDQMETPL

human factor XIIa = biological target: T6, human factor XIIa (Homo sapiens, UniProt P00748); experiment: Inactivation rate of human factor XIIa; format: biochemical; conditions: Table VIII; pH 7.5, 25° C; [I] 3.6-4.9 μM; read-out: kobs/[I]
T6 construct: human factor XIIa
T6 sequence (P00748 373-615 limits assumed): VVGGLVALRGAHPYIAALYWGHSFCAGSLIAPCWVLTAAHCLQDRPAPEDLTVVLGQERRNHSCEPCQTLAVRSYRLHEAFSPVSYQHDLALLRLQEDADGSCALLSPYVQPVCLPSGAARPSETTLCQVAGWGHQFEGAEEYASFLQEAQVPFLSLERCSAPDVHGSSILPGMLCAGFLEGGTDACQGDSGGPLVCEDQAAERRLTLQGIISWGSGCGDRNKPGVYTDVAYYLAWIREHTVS
T6 sequence (P00748 20-372 partner limits assumed): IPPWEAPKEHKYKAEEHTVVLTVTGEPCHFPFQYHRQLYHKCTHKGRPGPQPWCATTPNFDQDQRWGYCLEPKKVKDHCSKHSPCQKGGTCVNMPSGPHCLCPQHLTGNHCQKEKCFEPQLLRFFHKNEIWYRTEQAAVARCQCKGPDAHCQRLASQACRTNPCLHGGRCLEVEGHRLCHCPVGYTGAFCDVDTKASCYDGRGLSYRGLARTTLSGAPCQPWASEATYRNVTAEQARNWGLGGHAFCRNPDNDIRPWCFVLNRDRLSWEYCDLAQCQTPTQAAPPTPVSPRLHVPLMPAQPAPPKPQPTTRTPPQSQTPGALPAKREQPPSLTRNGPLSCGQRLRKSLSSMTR
Procedure: as §1, §4, §5, §6, §7, §8, §9, §2, §3

human lung tryptase = experiment: Inactivation rate of human lung tryptase; format: biochemical; conditions: Table IX; pH 7.5, 25° C; [I] 0.42-0.47 μM
Procedure: as §1
^a Inactivation rates were measured at 0.1M Hepes, 0.5M NaCl, pH 7.5
buffer, 8% Me2 SO and 25° C.
as §2, §10, §11, §12, §13, §14

chymotrypsin = chymotrypsin (Bos taurus, UniProt P00766); experiment: Inactivation of chymotrypsin; format: biochemical, bovine; conditions: Table X; pH 7.5, 25° C; [I] 0.9-43 μM; read-out: kobs/[I]

T2 sequence (P00742 235-488 limits assumed): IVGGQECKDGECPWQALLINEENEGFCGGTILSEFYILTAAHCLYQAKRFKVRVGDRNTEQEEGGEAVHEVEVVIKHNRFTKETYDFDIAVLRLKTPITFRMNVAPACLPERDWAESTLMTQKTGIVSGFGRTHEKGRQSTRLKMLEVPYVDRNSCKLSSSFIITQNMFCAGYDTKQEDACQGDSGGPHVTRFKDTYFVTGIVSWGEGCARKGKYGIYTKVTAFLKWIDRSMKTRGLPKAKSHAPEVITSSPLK
T2 sequence (P00742 41-179 partner limits assumed): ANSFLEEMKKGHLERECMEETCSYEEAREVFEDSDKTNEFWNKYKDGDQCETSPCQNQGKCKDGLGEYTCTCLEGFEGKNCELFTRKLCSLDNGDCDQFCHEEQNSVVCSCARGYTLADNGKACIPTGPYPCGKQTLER
T4 sequence (P27435 29-273): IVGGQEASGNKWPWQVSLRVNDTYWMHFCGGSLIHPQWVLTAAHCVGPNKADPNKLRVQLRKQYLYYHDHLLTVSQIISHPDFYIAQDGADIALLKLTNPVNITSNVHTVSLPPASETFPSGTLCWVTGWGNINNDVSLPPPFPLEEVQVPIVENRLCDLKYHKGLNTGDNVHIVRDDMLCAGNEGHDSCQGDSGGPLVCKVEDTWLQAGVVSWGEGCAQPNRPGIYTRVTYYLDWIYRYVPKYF
Chain of recombinant human tissue plasminogen activator (P00750 36-562): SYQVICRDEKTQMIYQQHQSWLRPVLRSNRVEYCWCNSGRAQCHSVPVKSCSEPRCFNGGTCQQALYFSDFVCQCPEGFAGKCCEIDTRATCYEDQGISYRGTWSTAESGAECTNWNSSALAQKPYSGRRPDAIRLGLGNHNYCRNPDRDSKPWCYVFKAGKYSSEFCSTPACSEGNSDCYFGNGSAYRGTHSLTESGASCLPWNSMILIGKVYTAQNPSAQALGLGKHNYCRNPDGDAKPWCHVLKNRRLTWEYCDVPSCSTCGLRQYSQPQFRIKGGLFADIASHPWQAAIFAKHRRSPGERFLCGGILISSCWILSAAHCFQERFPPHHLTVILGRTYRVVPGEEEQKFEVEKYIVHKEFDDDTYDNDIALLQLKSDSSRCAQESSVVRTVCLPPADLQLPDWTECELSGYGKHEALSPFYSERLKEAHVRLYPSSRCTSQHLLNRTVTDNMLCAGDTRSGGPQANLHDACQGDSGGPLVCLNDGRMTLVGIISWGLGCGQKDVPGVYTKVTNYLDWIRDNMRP

Row | kinact/KI (human thrombin) [M⁻¹ s⁻¹] | kinact/KI (human factor Xa) [M⁻¹ s⁻¹] | kinact/KI (bovine thrombin) [M⁻¹ s⁻¹] | kinact/KI ([1]; pH 7.5, Table IX, pH 7.5, 25° C, [I] 3.5-5.0 μM, read-out: kobs/[I]) [M⁻¹ s⁻¹] | kinact/KI (rat skin tryptase) [M⁻¹ s⁻¹] | kinact/KI (cathepsin G) [M⁻¹ s⁻¹] | kinact/KI (human factor XIIa) [M⁻¹ s⁻¹] | kobs/[I] (human lung tryptase) | kinact/KI (chymotrypsin) [M⁻¹ s⁻¹] | percentage of inhibition ([1]; Table IX, not time dependent, at 0.34-5.0 μM) [%] | SMILES
1 | 1140 | 1620 | 1090 |  |  |  |  |  |  |  | CC(C)(C)OC(=O)N[C@@H](Cc1ccccc1)C(=O)Nc1ccc2c(Cl)c(OCCSC(=N)N)oc(=O)c2c1 [Boc-L-Phe--NH-CiTEtOIC, 7-(N-t-butyloxycarbonyl-L-phenylalanylamino)-4-chloro-3-(2-isothiureidoethoxy)isocoumarin]
2 | 1340 | 3770 | 1280 | 13000 | 650000 | 53 | 107000 | 260,000 M^-1 s^-1 | 8400 |  | N=C(N)SCCOc1oc(=O)c2cc(NC(=O)[C@@H](N)Cc3ccccc3)ccc2c1Cl [L-Phe--NH-CiTEtOIC, 7-(L-phenylalanylamino)-4-chloro-3-(2-isothiureidoethoxy)isocoumarin]
3 | 6730 | 3630 | 15800 |  | 120000 |  | 59000 | 110,000 M^-1 s^-1 |  | 64 | N=C(N)SCCOc1oc(=O)c2cc(NC(=O)Cc3ccccc3)ccc2c1Cl [PhCH2 CONH-CiTEtOIC, 7-(phenylacetylamino)-4-chloro-3-(2-isothiureidoethoxy)isocoumarin]
